Our source for the IC50 values is patent publication EP3628659A1, “SELENOESTER-CONTAINING COMPOUNDS FOR USE IN THE TREATMENT OF MICROBIAL INFECTIONS OR COLORECTAL CANCER” (Consejo Superior De Investigaciones Científicas, priority 2018, dated 2020).

The structures appear in SMILES notation.

Test [1] deals with Colo 205 doxorubicin-sensitive. The experiment in a line: Cytotoxicity assay (MTT) in Colo 205 cells. In kind it is cell-based, human. The settings on record: Homo sapiens, COLO 205, 24 h, read-out: Colo 205 Cytotoxicity. On the procedure:
(§1) Cytotoxicity assays in human colonic adenocarcinoma cell lines Colo 205 doxorubicin-sensitive (ATCC-CCL-222) and Colo 320/MDR-LRP multidrug resistant overexpressing ABCB1 (MDR1)-LRP (ATCC-CCL-220.1) were performed following the procedure described by Gajdács et al, 2017, Bioorg Med Chem Lett. 27(4): 797-802. The effects of increasing concentrations of selenium compounds on cell growth were tested in 96-well flat-bottomed microtiter plates. The selectivity of the action towards cancer cells was assessed through the evaluation of cytotoxic activity in a non-tumoral cell line, the MRC-5 human embryonal lung fibroblast cell lines (ATCC CCL-171), as described in Gajdács et al, 2017, Bioorg Med Chem Lett. 27(4): 797-802.
(§2) All cell lines were purchased from LGC Promochem, Teddington, UK. The colonic cells were cultured in RPMI 1640 medium supplemented with 10% heat-inactivated fetal bovine serum, 2 mM L-glutamine, 1 mM Na-pyruvate and 100 mM Hepes. The cell lines were incubated at 37°C, in a 5% CO2, 95% air atmosphere. The semi-adherent human colon cancer cells were detached with Trypsin-Versene (EDTA) solution for 5 min at 37°C. Alternatively, MRC-5 cells was cultured in Eagle's Minimal Essential Medium (EMEM, containing 4.5 g/L glucose) supplemented with a non-essential amino acid mixture, a selection of vitamins and 10% heat-inactivated fetal bovine serum. The cell lines were incubated at 37°C, in a 5% CO2, 95% air atmosphere.
(§3) The compounds were diluted in a volume of 100 µL of medium. The two-fold serial dilutions of selenocompounds were prepared in 100 µL of RPMI 1640, horizontally. The semi-adherent colonic adenocarcinoma cells were treated with Trypsin-Versene (EDTA) solution. They were adjusted to a density of 2×10^4 cells in 100 µL of RPMI 1640 medium, and were added to each well, with the exception of the medium control wells. The final volume of the wells containing selenocompounds and cells was 200 µL.
(§4) The culture plates were incubated at 37°C for 24 h; at the end of the incubation period, 20 µL of MTT (thiazolyl blue tetrazolium bromide, Sigma) solution (from a stock solution of 5 mg/mL) were added to each well. After incubation at 37°C for 4 h, 100 µL of sodium dodecyl sulfate (SDS) (Sigma) solution (10% in 0.01 M HCI) were added to each well and the plates were further incubated at 37°C overnight. Cell growth was determined by measuring the optical density (OD) at 540/630 nm with Multiscan EX ELISA reader (Thermo Labsystems, Cheshire, WA, USA). Inhibition of the cell growth was determined according to the formula below: […] = 100−[(OD sample−OD medium control)/(OD cell control−OD medium control)] × 100 [formula]
(§5) Results are expressed in terms of IC50, defined as the inhibitory dose that reduces the growth of the cells exposed to the tested compounds by 50%. Regarding the selectivity, the selectivity indexes (SI) were calculate, being SI the quotient of the IC50 in non-tumoral cells (MRC-5) and the respective cancer cell (Colo-205 or Colo-320). Compound is considered moderately selective when SI < 6 and ≥ 3; and strongly selective when SI ≥ 6.

Test [2] deals with Colo 320/MDR-LRP multidrug resistant overexpressing ABCB1 (MDR1)-LRP. The experiment in a line: cells. The test is classed as cell-based, human. The settings on record: Homo sapiens, 24 h, read-out: Colo 320 Cytotoxicity. On the procedure: as §1, §2, §3, §4, §5
In test [3] the test system is Candida albicans. The experiment in a line: Antifungal activity (optical density), Candida albicans. In kind it is cell-based. The conditions noted are these: IC50 class, tested at 50, 100, 150 and 200 µM, OD 570 nm, 37 °C. On the procedure:
(§6) The compounds were tested for their antifungal and nematicidal properties against the fungi Candida albicans and Saccharomyces cerevisiae, and against the nematode Steinernema feltiae.
(§7) Fungal cell densities were determined by measuring the optical density (OD) at 570 nm at 0 h (first measurement immediately after incubation), 4 h, and 24 h after incubation at 37 °C; and using a Universal Microplate Reader, EL800, Biotech Instruments, Inc. Highland Park, Winooski, VT, USA. Compounds were dissolved in 1% DMSO and were tested at final concentrations of 50, 100, 150, and 200 µM. Nutrient Sabouraud Dextrose (SD), and Yeast Peptone Dextrose (YPD) were used as media for C. albicans, and S. cerevisiae, respectively. Ketoconazole was used as the positive control for C. albicans and S. cerevisiae. The growth culture with medium for each organism was used as the negative control. The Solvent 1% DMSO stock was used as a solvent control. All experiments were carried out in triplicate and on three different occasions (n = 9).
(§8) For the three organisms considered (C. albicans, S. cerevisiae and S. feltiae), the inhibitory concentration 50% (IC50) is defined as the concentration that inhibits the viability of the respective organism to a 50% of the viability determined for the negative control.

Test [4] concerns Saccharomyces cerevisiae. As to the kind of experiment: Antifungal activity (optical density), Saccharomyces cerevisiae. The test is classed as cell-based. The settings on record: read-out: Antifungal activity Saccharomyces cerevisiae, IC50 class, tested at 50, 100, 150 and 200 µM, OD 570 nm, 37 °C, read-out: Antifungal activity Streptomyces cerevisiae. How it is done: as §6, §7, §8

The subject of test [5] is Steinernema feltiae. As to the kind of experiment: Nematicidal activity (viability count), Steinernema feltiae. The settings on record: IC50 class, tested at 50, 100, 150 and 200 µM, viability at 24 h. In kind it is in vivo. On the procedure: as §6
The soil nematodes S. feltiae were purchased from Sautter and Stepper GmbH (Ammerbuch, Germany) and stored at 4 °C in the dark. Before each experiment, fresh samples of nematodes were purchased and stored in the fridge upon arrival and used for a maximum of six days. To perform the assay, 200 mg of nematodes was reconstituted in 50 mL of phosphate buffered saline (PBS) (pH = 7.4) to form a homogenous suspension to revive the nematodes. Afterwards, the individual suspensions were allowed to rest at room temperature. The sedimentation was avoided with occasional shaking in moderate light and at room temperature (25 °C) for 30 min. Viability of the nematodes was determined by counting the live and dead nematodes under a light microscope (TR 200, VWR International, Leuven, Belgium) at four-fold magnification. An initial viability value of more than 90 percent was considered necessary to perform the experiments.
Sample solutions were added into the wells of a 96-well plate to achieve at final concentrations of 50,100, 150, and 200 µM. Afterwards, 10 µL of nematode suspension was added to each well and the final volume in each well was adjusted to 100 µL with phosphate buffered saline (PBS) (pH = 7.4). PBS was used in the negative control and ethanol in the positive control. Viability was determined at 0 h and 24 h by counting the live and dead nematodes, whereby 50 µL of lukewarm water (40 °C) were added to each well to stimulate the nematodes for the 24 h reading. Each experiment was performed independently in triplicate and on three different occasions (n = 9).
as §8

As to `N#CC[Se]C(=O)c1ccc(F)cc1` [Compound 1, Se-(cyanomethyl) 4-fluorobenzoselenoate], the IC50 in test [1] was 1 to 10 µM; in test [2] it was 1 to 10 µM; in test [3], 10 to 50 µM; in test [4] it was greater than 100 µM; in test [5], 50 to 100 µM.

Consider `N#CC[Se]C(=O)c1ccc(Cl)c(Cl)c1` [Compound 15, Se-(cyanomethyl) 3,4-dichlorobenzoselenoate], for which the IC50 in test [1] was 1 to 10 µM; in test [2], 1 to 10 µM; in test [3], 10 to 50 µM; in test [4], greater than 100 µM; in test [5], greater than 100 µM.

On to `N#CC[Se]C(=O)Cc1ccccc1` [Compound 11, Se-(cyanomethyl) 2-phenylethaneselenoate], for which the IC50 was less than 1 µM in test [1]; less than 1 µM in test [2]; 10 to 50 µM in test [3]; greater than 100 µM in test [4]; 50 to 100 µM in test [5].

In the case of `N#CCC[Se]C(=O)c1ccc(Cl)cc1Cl` [Compound 14, Se-(cyanoethyl) 2,4-dichlorobenzoselenoate], the IC50 in test [1] was 1 to 10 µM; in test [2], 1 to 10 µM; in test [3] it was greater than 100 µM; in test [4] it was 50 to 100 µM; in test [5], 10 to 50 µM.

On to `CC(=O)Oc1ccccc1C(=O)[Se]CC#N` [Compound 17, Se-(cyanomethyl) 2-acetoxybenzoselenoate], for which the IC50 in test [1] was less than 1 µM; in test [2], 1 to 10 µM; in test [3], 10 to 50 µM; in test [4], 10 to 50 µM; in test [5], 10 to 50 µM.

Take `N#CC[Se]C(=O)c1ccccc1` [Compound 6, Se-(cyanomethyl) benzoselenoate]: the IC50 in test [1] was 1 to 10 µM; in test [2] it was 1 to 10 µM; in test [3], 10 to 50 µM; in test [4], greater than 100 µM; in test [5] it was 10 to 50 µM.

As for `CC(C)(C)c1ccc(C(=O)[Se]CC#N)cc1` [Compound 10, Se-(cyanomethyl) 4-tert-butylbenzoselenoate], the IC50 is 1 to 10 µM in test [1]; 1 to 10 µM in test [2]; 10 to 50 µM in test [3]; greater than 100 µM in test [4]; greater than 100 µM in test [5].

Turning to `Cc1ccc(C(=O)[Se]CCC#N)cc1` [Compound 8, Se-(cyanoethyl) 4-methylbenzoselenoate], the IC50 is 1 to 10 µM in test [1]; 1 to 10 µM in test [2]; greater than 100 µM in test [3]; 50 to 100 µM in test [4]; 10 to 50 µM in test [5].

On to `N#CCCC[Se]C(=O)c1ccc(Cl)cc1` [Compound 5, Se-(cyanopropyl) 4-chlorobenzoselenoate], for which the IC50 was 1 to 10 µM in test [1]; 1 to 10 µM in test [2]; 10 to 50 µM in test [3]; greater than 100 µM in test [4]; 1 to 10 µM in test [5].

As for `N#CC[Se]C(=O)c1ccc(Cl)cc1Cl` [Compound 13, Se-(cyanomethyl) 2,4-dichlorobenzoselenoate], the IC50 was 1 to 10 µM in test [1]; 1 to 10 µM in test [2]; 10 to 50 µM in test [3]; greater than 100 µM in test [4]; 10 to 50 µM in test [5].

Consider `Cc1ccc(C(=O)[Se]CC#N)cc1` [Compound 7, Se-(cyanomethyl) 4-methylbenzoselenoate], for which the IC50 in test [1] was 1 to 10 µM; in test [2], 1 to 10 µM; in test [3] it was 10 to 50 µM; in test [4], greater than 100 µM; in test [5], 1 to 10 µM.

For the molecule `N#CC[Se]C(=O)c1ccc(Cl)cc1` [Compound 3, Se-(cyanomethyl) 4-chlorobenzoselenoate], the IC50 is less than 1 µM in test [1]; 1 to 10 µM in test [2]; 10 to 50 µM in test [3]; greater than 100 µM in test [4]; 10 to 50 µM in test [5].

Turning to `N#CCC[Se]C(=O)c1ccc(Cl)cc1` [Compound 4, Se-(cyanoethyl) 4-chlorobenzoselenoate], the IC50 in test [1] is 1 to 10 µM; in test [2], 1 to 10 µM; in test [3], greater than 100 µM; in test [4] it was 50 to 100 µM; in test [5], 10 to 50 µM.

Regarding `Cc1ccc(C(=O)[Se]CCCC#N)cc1` [Compound 9, Se-(cyanopropyl) 4-methylbenzoselenoate], the IC50 is 1 to 10 µM in test [1]; 1 to 10 µM in test [2]; 50 to 100 µM in test [3]; greater than 100 µM in test [4]; 50 to 100 µM in test [5].
